Assay results reported in US20190167771A1, “CONTROL ANGIOGENESIS BY REGULATING PHOSPHORYLATION OF SERYL-tRNA SYNTHETASE (SerRS)” (The Scripps Research Institute, priority 2016, published 2019).

Experiments:
VEGFA [1] = experiment: VEGFA mRNA induction by 12-hour hypoxia in HEK293 cells (qRT-PCR); type: cell-based, human; conditions: inhibitor 5 μM pretreatment, hypoxia 12 hours
Method: In FIG. 3B, HEK293 cells were transiently transfected with SerRS^WT or SerRS^S101A/S241A constructs or empty control vector. 24 hours post-transfection, VEGFA mRNA induction by 12-hour-hypoxia treatment was monitored by qRT-PCR (means±SEM from four independent experiments; *P<0.05, **P<0.01, ***P<0.005). In FIG. 3C, HEK293 cells were transiently transfected with indicated constructs. 36 hours post-transfection, VEGFA mRNA induction by 12-hour-hypoxia treatment was monitored by qRT-PCR (means±SEM from four independent experiments; *P<0.0, **P<0.001, ***P<0.0001). The protein levels of SerRS, HIF-1α, and β-actin were examined by western blot (bottom).
Transient transfections were performed using Lipofectamine 2000 (ThermoFisher Scientific).
One gram of the total RNA from each sample was reversely transcribed to cDNA by M-MLV reverse transcriptase (Promega, Madison, Wis., USA). All real-time PCR reactions were performed using the StepOnePlus Real-Time PCR system (ThermoFisher Scientific) with SYBR Select Master Mix ThermoFisher Scientific). […] The PCR reaction program started at 95° C. for 10 min, followed by 45 cycles of 95° C. for 20 seconds and 60° C. for 1 min. Each experiment was carried out in triplicate. The VEGFA gene expression was normalized to that of β-ACTIN. Statistical analyses were performed with the software SigmaPlot (version 10.0). Student's t-test was used to analyze the changes between different groups.

SerRS phosphorylation = experiment: Hypoxia-induced phosphorylation of endogenous SerRS in HEK293 cells with ATM/ATR inhibitors (IP/IB); type: cell-based, human; conditions: HEK293 pretreated with inhibitor for one hour, hypoxia 12 hours
Method: In FIG. 7C, HEK293 cells were pretreated with specific ATM inhibitor KU-55933 and ATR inhibitor VE-821 for one hour and then cultured under hypoxia condition for 12 hours. Cell lysates were subjected to IP with anti-SerRS antibody followed by immunoblot (IB) with anti-P-SQ antibody for detecting phosphorylated SerRS (P-SerRS). Phosphorylation of known ATM/ATR substrates (Chk1 and Chk2) was also immunoblotted.
Cells were resuspended with lysis buffer (20 mM Tris-HCl (pH 7.5), 150 mM NaCl, 1 mM of EDTA, 1 mM EGTA, 1% Triton X-100, 2.5 mM sodium pyrophosphate, 1 mM beta-glycerophosphate, 1 mM Na3VO4, and protease inhibitor cocktail) on ice. Supernatants were incubated with indicated antibodies and protein-G-conjugated agarose beads (ThermoFisher Scientific) for at least 2 h. The beads were washed five times with wash buffer (same as the lysis buffer, except that Triton X-100 was reduced from 1% to 0.1%) and then subjected to SDS-PAGE and immunoblotting analysis with indicated antibodies.

ATM/ATR kinases = experiment: In vitro phosphorylation of recombinant SerRS by DNA-activated HEK293 nuclear extract (p-SQ immunoblot, 32P-labelling); type: biochemical, human; conditions: recombinant his6-tagged protein, p-SQ antibody and 32P-labelling
Method: FIGS. 1A-G show SerRS is important for hypoxia induced VEGFA expression and is phosphorylated by ATM and ATR kinases under hypoxia at serine 101 and serine 241 residues. In FIG. 1A, HEK293 cells were transfected with shRNAs targeting SerRS (sh-SerRS) or GlyRS (sh-GlyRS), or nonspecific control shRNA (sh-Control). 48 hours post-transfection, cells were cultured under hypoxia or normoxia conditions for 12 hours. Immunoblot of cell lysates with anti-SerRS, anti-GlyRS and anti-β-actin antibodies (left). VEGFA expression levels were measured by qRT-PCR (right) and relative induction of VEGFA transcription under hypoxia were plotted (right, inset) (means±SEM. from four independent experiments; *P<0.01, **P<0.0001). […] The conserved ATM/ATR substrate motif residues are underlined. In FIG. 1C, recombinant his6-tagged human SerRS or GlyRS were incubated with γ-^32P-ATP and HEK293 cell nuclear extracts which are treated with or without double-stranded DNA oligoes mimicking DNA damage stimuli to activate ATM/ATR/DNA-PK kinases. Recombinant proteins were then purified by Ni-NTA beads and subjected to SDS-PAGE and autoradiography. In FIG. 1D, recombinant his6-tagged two human aminoacyl tRNA synthetases (AARS): TyrRS and GlyRS, wild type SerRS, or SerRS mutants with single or double substitutions of serine 101 and serine 241 with alanine (S101A, S241A, and S101A/S241A) were treated as described in FIG. 1C and phosphorylated recombinant proteins were immunoblotted with antibodies as indicated after purification by Ni-NTA beads. In FIG. 1E, HEK293 cells were cultured under hypoxia for 3, 6, and 12 hours. Phosphorylated SerRS was immunoblotted with specific anti-p-SQ antibody after SerRS proteins were immunoprecipitated (IP). Cell lysates were immunoblotted with indicated antibodies for known ATM and ATR substrates (Chk1 and P53). In FIG. 1F, Flag-tagged wild type and mutant SerRS constructs were transfected into HEK293 cells. 24 hours post-transfection, cells were treated with hypoxia stress for 12 hours and ectopically expressed SerRS was then purified by immunoprecipitation (IP) using anti-Flag antibody and immunoblot (IB) with anti-P-SQ antibody and anti-Flag antibody. In FIG. 1G, HEK293 cells were transfected with siRNA against ATM (si-ATM) or ATR (si-ATR) and treated with hypoxia stress for 12 hours. Phosphorylated SerRS were immunoblotted as described in FIG. 1E. […]
For protein purification, human SerRS and its mutant genes were subeloned into pET-20b(+) plasmid (Novagen, Darmstadt, Germany) and overexpressed in E. coli. […] The purities of the recombinant proteins were assessed by Coomassie blue staining following 4-12% Mini Gel (ThermoFisher Scientific) electrophoresis. Protein concentrations were determined using Bradford protein assay (BioRad, Hercules, Calif., USA). […]

Vegfa [2] = experiment: Vegfa mRNA by qRT-PCR in zebrafish embryos with SerRS knockdown and mRNA co-injection; type: in vivo; conditions: morpholino injected into 1-cell stage embryos, 3 dpf
Method: (§1) In FIG. 2A, wild type SerRS (SerRS^WT), its mutants with double substitutions of serine 101 and 241 with alanine or aspartic acid residues (SerRS^S101A/S241A and SerRS^S101D/S241D), or empty vector were transfected into HEK293 cells. The expression levels of SerRS proteins was measured by immunoblot (bottom) and VEGFA expression was determined by qRT-PCR (means±SEM from three independent experiments; ***P<0.0001). In FIGS. 2B-D, the roles of SerRS^S101A/S241A and SerRS^S101D/S241D in regulating vascular development in vivo in zebrafish were examined by co-injection of SerRS^S101A/S241A and SerRS^S101D/S241D mRNAs into one-cell-stage embryos whose endogenous SerRS was knocked down by injection of antisense morpholino (SerRS-MO) that led to abnormal high expression of Vegfa and hypervascularization (shown by short bold arrows in FIG. 2C). At 3 day post fertilization (dpf), embryos were harvested and Vegfa expression levels were measured by qRT-PCR (means±SEM, n=125-211; *P<0.01, **P<0.001) (B). The development of intersegmental vessel (ISV) at 3 dpf was examined (C) and the statistics of ISV abnormal branching rescued by SerRS^WT or mutant SerRS mRNA injections was analyzed (D; χ^2-test,* P>0.05 vs SerRS^WT, **P>0.1 vs SerRS-MO, ***P<1×10^−28 vs control-MO). In FIG. 2E, the binding affinities of SerRS^WT or SerRS^S101D/S241D with ^32P labeled DNA fragments corresponding to SerRS binding site on human VEGFA promoter were examined by EMSA. In FIG. 2F, the binding of SerRS^WT, SerRS^S101A/S241A, or SerRS^S101D/S241D on VEGFA promoter in HEK293 cells was examined by chromatin immunoprecipitation (ChIP) and qPCR (means±SEM from two independent experiments; ***P<0.0001). In FIG. 2G, the binding of endogenous SerRS on VEGFA promoter during hypoxia course was monitored by ChIP (means±SEM from three independent experiments; *P<0.05, **P<0.005 vs normal).
Total RNA was isolated from cells and zebrafish embryos by TRIzol Reagent (ThermoFisher Scientific). […] of the total RNA from each sample was reversely transcribed to cDNA by M-MLV reverse transcriptase (Promega, Madison, Wis., USA). All real-time PCR reactions were performed using the StepOnePlus Real-Time PCR system (ThermoFisher Scientific) with SYBR Select Master Mix ThermoFisher Scientific). […]

zebrafish embryos = experiment: Intersegmental vessel (ISV) branching in zebrafish embryos; type: in vivo; conditions: SerRS-MO alone, 3 dpf
Method: as §1
Transgenic Tg (Fli1a: EGFP) fish were maintained as we described before (Ref). The fish embryos were kept at 28.5° C. before and after microinjection. The antisense morpholino (MOs) targeting SerRS was injected into the yolk of 1-cell stage embryos at the dosage of 4˜5 ng per embryo. The sequence of SerRS-MO is (Ref). The SerRS-MO (5′ AGGAGAATGTGAACAAACCTGACAC 3′ (SEQ ID NO: 34)) and standard control MO (5′ CCTCTTACCTCAGTTACAATTTATA 3′ (SEQ ID NO: 35)) were purchased from Gene Tools, LLC (Philomath, Oreg. USA). After injection, embryos were incubated in E3 embryo medium supplemented with 0.003% 1-phenyl-2-thiourea (PTU) at 28.5° C. to prevent pigment formation. […] The rescue effects of different SerRS mutants on ISV development were analyzed with χ^2 test. […]

Compound	VEGFA induction under hypoxia (VEGFA [1])	SerRS phosphorylation under hypoxia (SerRS phosphorylation)	level of phosphorylation in vitro (ATM/ATR kinases)	other results
CS(=O)(=O)c1ccc(-c2cnc(N)c(C(=O)Nc3ccccc3)n2)cc1 [VE-821, reference compound]	dramatically inhibited VEGFA induction	blocked	–	–
O=c1cc(-c2cccc3c2Sc2ccccc2S3)oc(N2CCOCC2)c1 [KU-55933, reference compound]	less but still statistically significant	blocked	–	–
SerRS^S241A: human SerRS mutant, serine 241 substituted with alanine, SEQ ID NO: 3	–	–	almost had no phosphorylation	–
SerRS^S101A: human SerRS mutant, serine 101 substituted with alanine, SEQ ID NO: 2	–	–	decreased level of phosphorylation	–
SerRS-MO: antisense morpholino targeting zebrafish SerRS, SEQ ID NO: 34 (antisense AGGAGAATGTGAACAAACCTGACAC; all phosphorodiamidate morpholino (PMO)) [reference compound]	–	–	–	increase in the mRNA level of Vegfa (Vegfa [2]): 4 fold; zebrafish embryos with abnormal hyper-ISV branching phenotype (zebrafish embryos): 69.7%
